These compounds were tested against T1, ACC1 (Homo sapiens, UniProt Q13085) (assay: In vitro inhibition of ACC1 activity, ADP-Glo Kinase Analysis). Conditions: 1 nM ACC1, 10 μM acetyl-CoA, 20 μM ATP.
T1 construct: purchased BPS bioscience
Type: biochemical
Source text: ADP-Glo™ Kinase Analysis Kit (Promega) is used for the in vitro analysis of the inhibitory effect of the present compound on ACC1 or ACC2. ADP-Glo™ Kinase Analysis is a kinase detection analysis of luminescence method. ADP is produced in the process of catalyzing the substrate by ACC. ADP is converted into ATP which is then converted into light by Ultra-Glo™ luciferase. ADP is quantified by detecting the light signal, thus the enzyme activity can be measured by quantification of the ADP amount produced during the enzyme reaction. The analysis is carried out in two steps: in the first step, after the kinase reaction, a portion of ADP-Glo™ reagent equal in volume to the kinase reaction system is added to terminate the reaction and consume the remaining ATP; in the second step, a kinase detection reagent is added, which not only converts ADP into ATP, but also uses a coupled luciferase/luciferin reaction to detect newly synthesized ATP.
a. 10 mM compound stock solution (the present compound was dissolved in 100% DMSO to prepare the 10 mM stock solution) was diluted 50-fold to 200 μM with 100% DMSO, and then diluted in equal proportions (1:3) in a 96-well dilution plate (249944, Nunc). The gradient concentrations of the compound were 200 μM, 66.67 μM, 22.22 μM, 7.41 μM, 2.47 μM, 0.823 μM, 0.274 μM, 0.0914 μM, 0.0305 μM, 0.0102 μM, 0.00339 μM and 0.00113 μM.
b. 4.5 μL ACC1 working solution (BPS bioscience) (2.22 nM) was added to each well of a 384-well test plate (6007290, Perkin Elmer).
c. 0.5 μL of the serially diluted compound (prepared in step a) was added to each well of the 384-well test plate, which was centrifuged at 1000 rpm for 1 min and then incubated at room temperature for 15 min. The reaction system with compound GS-0976 at a final concentration of 0.1 μM was used as positive control; the reaction system with no compound but DMSO at a final concentration of 5% was used as negative control.
d. In the 384-well test plate (prepared in step c), 5 μL of the substrate working solution was added to each well to start the enzymatic reaction. The plate was centrifuged at 1000 rpm for 1 min and then incubated at room temperature for 30 min. The final concentration of each component in the ACC1 reaction system: 1 nM ACC1, 10 μM acetyl-CoA, 30 mM NaHCO3, and 20 μM ATP. The final concentration of each component in the ACC2 reaction system: 1.1 nM ACC2, 20 μM acetyl-CoA, 20 mM NaHCO3, and 15 μM ATP. Final concentrations of test compounds: 10 μM, 3.33 μM, 1.11 μM, 0.37 μM, 0.123 μM, 0.0411 μM, 0.0137 μM, 0.00457 μM, 0.00152 μM, 0.00051 μM, 0.00017 μM and 0.000056 μM. The final concentration of DMSO was 5% (v/v).
e. 10 μL of ADP-Glo reagent was added to each well of the 384-well test plate (prepared in step d), which was centrifuged at 1000 rpm for 1 min and then incubated at room temperature for 40 min.
f. 20 μL of kinase detection reagent was added to each well of the 384-well test plate (prepared in step e), which was centrifuged at 1000 rpm for 1 min and then incubated at room temperature for 40 min.
g. The chemiluminescence signal was detected with Perkin Elmer EnVision 2104.
ACC1 working solution and substrate working solution were both prepared with 1× kinase reaction buffer. The buffer was consisting of 50 mM HEPES buffer, 2 mM magnesium chloride, 0.01% BRIJ-35, 2 mM potassium citrate, 50 μg/mL BSA and 2 mM DTT.
The average value of the positive and negative control well and the standard deviation were calculated. The inhibition percentage was calculated according to the following formula: 100×[1−(compound−average value of positive control)/(average value of negative control-average value of positive control)].
IC50 of the compound was obtained using GraphPad Prism 6 software according to the following nonlinear fitting formula:
Y=Bottom+(Top−Bottom)/(1+10^((Log IC50−X)×Hillslope)), […]
COc1ccccc1[C@H](CN1c2sc(-c3ncco3)c(C)c2C(=O)[C@]2(C[C@H](C(=O)NC(C)(C)C(=O)O)C2)C1=O)OC1CCOCC1 [Compound 11, 2-((1s,3S)-7′-((R)-2-(2-methoxyphenyl)-2-((tetrahydro-2H-pyran-4-yl)oxy)ethyl)-3′-methyl-2′-(oxazol-2-yl)-4′,6′-dioxo-6′,7′-dihydro-4′H-spiro[cyclobutane-1,5′-thieno[2,3-b]pyridine]-3-carboxyamido)-2-methylpropionic Acid] was tested, and the IC50 was less than 10 nM.
Work on COc1ccccc1[C@H](CN1c2sc(-c3ncco3)c(C)c2C(=O)[C@]2(C[C@H](C(=O)N(C)C)C2)C1=O)OC1CCOCC1 [Compound 12] yielded an IC50 of less than 10 nM.
Work on COc1ccccc1[C@H](CN1c2sc(-c3ncco3)c(C)c2C(=O)[C@]2(C[C@H](C(=O)N[C@@H](C)C(=O)O)C2)C1=O)OC1CCOCC1 [Compound 13] yielded an IC50 of less than 10 nM.
Compound COc1ccccc1[C@H](CN1c2sc(-c3ncco3)c(C)c2C(=O)[C@]2(C[C@H](C(=O)N[C@H](C)C(=O)O)C2)C1=O)OC1CCOCC1 [Compound 14, ((1S,3S)-7′-((R)-2-(2-methoxyphenyl)-2-((tetrahydro-2H-pyran-4-yl)oxy)ethyl)-3′-methyl-2′-(oxazol-2-yl)-4′,6′-dioxo-6′,7′-dihydro-4′H-spiro[cyclobutane-1,5′-thieno[2,3-b]pyridine]-3-carbonyl)-D-alanine] has an IC50 of less than 10 nM.
Compound COC(=O)[C@@H](C)NC(=O)[C@H]1C[C@@]2(C1)C(=O)c1c(sc(-c3ncco3)c1C)N(C[C@H](OC1CCOCC1)c1ccccc1OC)C2=O [Compound 14-1, Methyl ((1S,3S)-7′-((R)-2-(2-methoxyphenyl)-2-((tetrahydro-2H-pyran-4-yl)oxy)ethyl)-3′-methyl-2′-(oxazol-2-yl)-4′,6′-dioxo-6′,7′-dihydro-4′H-spiro[cyclobutane-1,5′-thieno[2,3-b]pyridine]-3-carbonyl)-D-alaninate] has an IC50 of less than 10 nM.
Compound COc1ccccc1[C@H](CN1c2sc(-c3ncco3)c(C)c2C(=O)[C@]2(C[C@H](C(=O)N(C)CC(=O)O)C2)C1=O)OC1CCOCC1 [Compound 15, N-((1s,3S)-7′-((R)-2-(2-methoxyphenyl)-2-((tetrahydro-2H-pyran-4-yl)oxy)ethyl)-3′-methyl-2′-(oxazol-2-yl)-4′,6′-dioxo-6′,7′-dihydro-4′H-spiro[cyclobutane-1,5′-thieno[2,3-b]pyridine]-3-carbonyl)-N-methylglycine] has an IC50 of less than 10 nM.
For COC(=O)CN(C)C(=O)[C@H]1C[C@@]2(C1)C(=O)c1c(sc(-c3ncco3)c1C)N(C[C@H](OC1CCOCC1)c1ccccc1OC)C2=O [Compound 15-1, Methyl N-((1s,3S)-7′-((R)-2-(2-methoxyphenyl)-2-((tetrahydro-2H-pyran-4-yl)oxy)ethyl)-3′-methyl-2′-(oxazol-2-yl)-4′,6′-dioxo-6′,7′-dihydro-4′H-spiro[cyclobutane-1,5′-thieno[2,3-b]pyridine]-3-carbonyl)-N-methylglycinate], the IC50 was less than 10 nM.
COc1ccccc1[C@H](CN1c2sc(-c3ncco3)c(C)c2C(=O)[C@]2(C[C@H](C(=O)OCC(=O)O)C2)C1=O)OC1CCOCC1 [Compound 16, 2-(((1s,3S)-7′-((R)-2-(2-methoxyphenyl)-2-((tetrahydro-2H-pyran-4-yl)oxy)ethyl)-3′-methyl-2′-(oxazol-2-yl)-4′,6′-dioxo-6′,7′-dihydro-4′H-spiro[cyclobutane-1,5′-thieno[2,3-b]pyridine]-3-carbonyl)oxy)acetic Acid] gave an IC50 of less than 10 nM.
For COc1ccccc1[C@H](CN1c2sc(-c3ncco3)c(C)c2C(=O)[C@]2(C[C@H](C(N)=O)C2)C1=O)OC1CCOCC1 [Compound 17], the IC50 was less than 10 nM.
For COc1ccccc1[C@H](CN1c2sc(-c3ncco3)c(C)c2C(=O)[C@]2(C[C@H](C(=O)NCCO)C2)C1=O)OC1CCOCC1 [Compound 18, (1s,3S)-N-(2-hydroxyethyl)-7′-((R)-2-(2-methoxyphenyl)-2-((tetrahydro-2H-pyran-4-yl)oxy)ethyl)-3′-methyl-2′-(oxazol-2-yl)-4′,6′-dioxo-6′,7′-dihydro-4′H-spiro[cyclobutane-1,5′-thieno[2,3-b]pyridine]-3-carboxamide], the IC50 was less than 10 nM.
Compound COc1ccccc1[C@H](CN1C(=O)C2(CCN(C(=O)OC(C)(C)C)CC2)C(=O)c2c1sc(-c1ncco1)c2C)OC1CCOCC1 [Compound 20, tert-butyl (R)-7′-(2-(2-methoxyphenyl)-2-((tetrahydro-2H-pyran-4-yl)oxy)ethyl)-3′-methyl-2′-(oxazol-2-yl)-4′,6′-dione-6′,7′-dihydro-4′H-spiro[piperidine-4,5′-thieno[2,3-d]pyridine]-1-carboxylate] has an IC50 of 10 to 100 nM.
For COc1ccccc1[C@H](CN1C(=O)C2(CCNCC2)C(=O)c2c1sc(-c1ncco1)c2C)OC1CCOCC1 [Compound 21, (R)-7′-(2-(2-methoxyphenyl)-2-((tetrahydro-2H-pyran-4-yl)oxy)ethyl)-3′-methyl-2′-(oxazol-2-yl)-4′H-spiro[piperidine-4,5′-thieno[2,3-d]pyridine]-4′,6′(7′H)-dione], the IC50 was less than 10 nM.
COC(=O)CN1CCC2(CC1)C(=O)c1c(sc(-c3ncco3)c1C)N(C[C@H](OC1CCOCC1)c1ccccc1OC)C2=O [Compound 22, methyl (R)-2-(7′-(2-(2-methoxyphenyl)-2-((tetrahydro-2H-pyran-4-yl)oxy)ethyl)-3′-methyl-2′-(oxazol-2-yl)-4′,6′-dioxo-6′,7′-dihydro-4′H-spiro[piperidine-4,5′-thieno[2,3-d]pyridine]-1-yl)carboxylate] gave an IC50 of 10 to 100 nM.
In the case of COc1ccccc1[C@H](CN1C(=O)C2(CCN(CC(=O)O)CC2)C(=O)c2c1sc(-c1ncco1)c2C)OC1CCOCC1 [Compound 23, (R)-2-(7′-(2-(2-methoxyphenyl)-2-((tetrahydro-2H-pyran-4-yl)oxy)ethyl)-3′-methyl-2′-(oxazol-2-yl)-4′,6′-dioxo-6′,7′-dihydro-4′H-spiro[piperidine-4,5′-thieno[2,3-d]pyridin]-1-yl)acetic Acid], the IC50 is reported as less than 10 nM.
For COc1ccccc1[C@H](CN1C(=O)C2(CCN(C(C)(C)C(=O)O)CC2)C(=O)c2c1sc(-c1ncco1)c2C)OC1CCOCC1 [Compound 25, (R)-2-(7′-(2-(2-methoxyphenyl)-2-((tetrahydro-2H-pyran-4-yl)oxy)ethyl)-3′-methyl-2′-(oxazol-2-yl)-4′,6′-dioxo-6′,7′-dihydro-4′H-spiro[piperidine-4,5′-thieno[2,3-d]pyridin]-1-yl)-2-methylpropionic Acid], the IC50 was 10 to 100 nM.
Work on COC(=O)C(C)(C)N1CCC2(CC1)C(=O)c1c(sc(-c3ncco3)c1C)N(C[C@H](OC1CCOCC1)c1ccccc1OC)C2=O [Compound 25-1, methyl (R)-2-(7′-(2-(2-methoxyphenyl)-2-((tetrahydro-2H-pyran-4-yl)oxy)ethyl)-3′-methyl-2′-(oxazol-2-yl)-4′,6′-dioxo-6′,7′-dihydro-4′H-spiro[piperidine-4,5′-thieno[2,3-d]pyridin]-1-yl)-2-methylpropanoate] yielded an IC50 of 10 to 100 nM.
COC(=O)C(=O)N1CCC2(CC1)C(=O)c1c(sc(-c3ncco3)c1C)N(C[C@H](OC1CCOCC1)c1ccccc1OC)C2=O [Compound 26, methyl (R)-2-(7′-(2-(2-methoxyphenyl)-2-((tetrahydro-2H-pyran-4-yl)oxy)ethyl)-3′-methyl-2′-(oxazol-2-yl)-4′,6′-dioxo-6′,7′-dihydro-4′H-spiro[piperidine-4,5′-thieno[2,3-d]pyridin]-1-yl)-2-oxoacetate] showed an IC50 of less than 10 nM.

Source: patent publication US20220041616A1, “SPIRO COMPOUND AND MEDICAL USES THEREOF” (The National Institutes of Pharmaceutical R&D Co., Ltd., priority 2018, published 2022)
